The results in this text go back to ChEMBL document CHEMBL5465560, “Selectivity Literature for EUbOPEN Chemogenomic Library” (2024).

The target in assay [1] is T1, Tyrosine-protein kinase Mer (Homo sapiens) (UniProt Q12866).
T1 sequence (whole entry): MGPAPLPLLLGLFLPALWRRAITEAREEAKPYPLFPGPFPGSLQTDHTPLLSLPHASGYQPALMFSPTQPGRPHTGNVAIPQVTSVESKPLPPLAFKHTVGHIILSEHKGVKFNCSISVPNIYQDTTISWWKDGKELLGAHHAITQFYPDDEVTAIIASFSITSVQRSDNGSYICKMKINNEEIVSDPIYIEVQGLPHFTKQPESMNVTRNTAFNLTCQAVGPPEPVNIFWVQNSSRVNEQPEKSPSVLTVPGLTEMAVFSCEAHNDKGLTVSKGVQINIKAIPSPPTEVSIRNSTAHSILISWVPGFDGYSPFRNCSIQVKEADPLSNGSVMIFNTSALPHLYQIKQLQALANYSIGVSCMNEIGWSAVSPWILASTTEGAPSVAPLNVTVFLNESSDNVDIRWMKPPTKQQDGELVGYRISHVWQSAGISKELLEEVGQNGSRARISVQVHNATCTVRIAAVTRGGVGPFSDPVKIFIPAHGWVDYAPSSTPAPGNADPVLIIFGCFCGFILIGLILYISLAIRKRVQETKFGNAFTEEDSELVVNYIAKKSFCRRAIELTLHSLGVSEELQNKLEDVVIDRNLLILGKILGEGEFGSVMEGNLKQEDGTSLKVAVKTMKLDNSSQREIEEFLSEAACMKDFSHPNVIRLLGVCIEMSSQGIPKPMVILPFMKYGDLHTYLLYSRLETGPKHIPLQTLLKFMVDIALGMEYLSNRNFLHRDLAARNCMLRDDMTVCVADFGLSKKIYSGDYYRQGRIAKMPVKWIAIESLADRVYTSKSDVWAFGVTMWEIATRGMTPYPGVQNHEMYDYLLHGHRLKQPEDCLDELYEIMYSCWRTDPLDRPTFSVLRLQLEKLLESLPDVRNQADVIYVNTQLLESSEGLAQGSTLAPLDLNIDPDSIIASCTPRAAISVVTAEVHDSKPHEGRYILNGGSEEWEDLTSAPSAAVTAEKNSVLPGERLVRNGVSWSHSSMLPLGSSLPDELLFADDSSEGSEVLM
As to conditions: at 10 µM.

For assay [2], the target named is Ribosomal protein S6 kinase alpha-5 (Homo sapiens) (UniProt O75582). Kind of assay: Selectivity interaction (Ambit KINOMEscan and KiNATiv profiling in Jurkat cells) EUB0000090b RPS6KA5. Type of assay: cell-based. The conditions noted are these: at 1 µM.
Ribosomal protein S6 kinase alpha-5 (Homo sapiens), sequence (O75582 whole entry, looked up): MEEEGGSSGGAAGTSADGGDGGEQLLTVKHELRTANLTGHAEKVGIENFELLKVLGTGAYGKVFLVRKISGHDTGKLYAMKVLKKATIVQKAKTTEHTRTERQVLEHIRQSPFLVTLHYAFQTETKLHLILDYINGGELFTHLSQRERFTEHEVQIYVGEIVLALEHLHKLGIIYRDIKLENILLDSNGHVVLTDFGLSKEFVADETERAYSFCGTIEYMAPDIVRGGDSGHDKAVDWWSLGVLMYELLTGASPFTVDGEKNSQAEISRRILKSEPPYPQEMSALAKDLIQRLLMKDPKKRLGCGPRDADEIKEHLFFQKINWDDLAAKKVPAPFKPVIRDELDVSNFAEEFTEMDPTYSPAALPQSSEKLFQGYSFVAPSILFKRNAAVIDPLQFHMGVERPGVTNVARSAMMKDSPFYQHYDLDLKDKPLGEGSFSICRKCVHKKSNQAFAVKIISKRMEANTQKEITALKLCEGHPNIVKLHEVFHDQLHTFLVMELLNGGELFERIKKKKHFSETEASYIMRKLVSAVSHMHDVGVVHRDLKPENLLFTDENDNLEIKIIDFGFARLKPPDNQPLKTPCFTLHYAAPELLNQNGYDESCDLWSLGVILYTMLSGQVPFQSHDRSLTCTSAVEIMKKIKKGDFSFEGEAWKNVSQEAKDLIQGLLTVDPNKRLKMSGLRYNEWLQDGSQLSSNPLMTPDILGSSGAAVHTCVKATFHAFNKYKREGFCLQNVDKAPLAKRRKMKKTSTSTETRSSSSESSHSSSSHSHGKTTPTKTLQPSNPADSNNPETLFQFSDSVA
In assay [3] the target is Tyrosine-protein kinase Blk (Homo sapiens) (UniProt P51451). As to the kind of experiment: Selectivity interaction (KinomeScan (DiscoverX)) EUB0001079a BLK. As to conditions: at 1 µM.
Tyrosine-protein kinase Blk (Homo sapiens), sequence (P51451 2-505 limits assumed): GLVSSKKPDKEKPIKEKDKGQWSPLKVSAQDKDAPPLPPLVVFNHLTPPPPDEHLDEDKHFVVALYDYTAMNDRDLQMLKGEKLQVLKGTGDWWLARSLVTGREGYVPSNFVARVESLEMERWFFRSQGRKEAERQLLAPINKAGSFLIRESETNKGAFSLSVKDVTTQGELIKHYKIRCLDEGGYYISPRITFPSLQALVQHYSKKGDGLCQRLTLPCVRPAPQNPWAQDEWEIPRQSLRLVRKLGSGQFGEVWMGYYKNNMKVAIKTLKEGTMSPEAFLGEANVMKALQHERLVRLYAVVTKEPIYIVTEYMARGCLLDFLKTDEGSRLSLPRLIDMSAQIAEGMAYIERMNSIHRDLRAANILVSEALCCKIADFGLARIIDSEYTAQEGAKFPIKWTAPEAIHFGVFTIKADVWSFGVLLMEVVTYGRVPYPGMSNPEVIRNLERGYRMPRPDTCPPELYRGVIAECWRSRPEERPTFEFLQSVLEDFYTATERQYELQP
The target in assay [4] is Serine/threonine-protein kinase pim-1 (Homo sapiens, UniProt P11309). As to the kind of experiment: Selectivity interaction (KinomeScan (DiscoverX)) EUB0000092b PIM1. As to conditions: at 10 µM.
Serine/threonine-protein kinase pim-1, sequence (P11309 whole entry, looked up): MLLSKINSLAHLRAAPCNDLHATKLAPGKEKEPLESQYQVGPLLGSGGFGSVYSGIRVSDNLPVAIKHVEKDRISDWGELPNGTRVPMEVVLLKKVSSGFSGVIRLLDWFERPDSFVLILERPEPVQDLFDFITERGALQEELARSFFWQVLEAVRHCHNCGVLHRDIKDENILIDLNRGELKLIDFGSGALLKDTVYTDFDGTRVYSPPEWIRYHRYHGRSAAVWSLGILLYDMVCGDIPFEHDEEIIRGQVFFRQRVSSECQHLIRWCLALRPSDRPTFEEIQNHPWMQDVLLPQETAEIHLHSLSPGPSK
Assay [5] addresses T2, Serine/threonine-protein kinase ULK3 (Homo sapiens) (UniProt Q6PHR2).
T2 sequence (whole entry): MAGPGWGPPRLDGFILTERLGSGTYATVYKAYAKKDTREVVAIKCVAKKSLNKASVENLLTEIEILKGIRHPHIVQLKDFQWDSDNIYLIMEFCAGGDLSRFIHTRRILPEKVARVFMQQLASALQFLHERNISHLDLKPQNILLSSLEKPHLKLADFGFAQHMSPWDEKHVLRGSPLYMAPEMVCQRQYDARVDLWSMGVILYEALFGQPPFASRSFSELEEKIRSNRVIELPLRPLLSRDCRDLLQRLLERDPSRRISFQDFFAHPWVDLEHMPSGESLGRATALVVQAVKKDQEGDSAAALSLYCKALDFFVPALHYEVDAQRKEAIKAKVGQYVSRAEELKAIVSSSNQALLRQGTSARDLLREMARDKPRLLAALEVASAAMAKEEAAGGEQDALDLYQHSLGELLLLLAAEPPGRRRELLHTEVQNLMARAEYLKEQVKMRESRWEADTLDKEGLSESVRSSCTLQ
Kind of assay: Selectivity interaction (KinomeScan (DiscoverX)) EUB0001550a ULK3. As to conditions: at 1 µM.

Assay [6] concerns the target T3, Membrane-associated tyrosine- and threonine-specific cdc2-inhibitory kinase (Homo sapiens) (UniProt Q99640).
T3 sequence (whole entry): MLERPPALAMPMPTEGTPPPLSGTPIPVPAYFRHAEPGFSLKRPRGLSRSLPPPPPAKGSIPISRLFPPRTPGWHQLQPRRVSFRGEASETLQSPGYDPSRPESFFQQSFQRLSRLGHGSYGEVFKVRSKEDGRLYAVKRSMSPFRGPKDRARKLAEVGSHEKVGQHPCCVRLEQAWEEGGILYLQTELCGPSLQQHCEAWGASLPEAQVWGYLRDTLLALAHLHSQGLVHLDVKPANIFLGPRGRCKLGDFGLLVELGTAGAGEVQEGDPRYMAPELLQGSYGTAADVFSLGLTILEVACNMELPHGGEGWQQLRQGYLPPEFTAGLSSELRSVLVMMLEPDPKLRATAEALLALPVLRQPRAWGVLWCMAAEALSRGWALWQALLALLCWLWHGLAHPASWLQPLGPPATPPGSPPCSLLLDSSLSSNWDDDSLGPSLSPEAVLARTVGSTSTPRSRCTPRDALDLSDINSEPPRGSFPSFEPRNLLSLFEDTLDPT
Kind of assay: Selectivity interaction (KinomeScan (DiscoverX)) EUB0000607a PKMYT1. The conditions noted are these: at 10 µM.

The target of assay [7] is T4, NUAK family SNF1-like kinase 1 (Homo sapiens) (UniProt O60285).
T4 sequence (whole entry): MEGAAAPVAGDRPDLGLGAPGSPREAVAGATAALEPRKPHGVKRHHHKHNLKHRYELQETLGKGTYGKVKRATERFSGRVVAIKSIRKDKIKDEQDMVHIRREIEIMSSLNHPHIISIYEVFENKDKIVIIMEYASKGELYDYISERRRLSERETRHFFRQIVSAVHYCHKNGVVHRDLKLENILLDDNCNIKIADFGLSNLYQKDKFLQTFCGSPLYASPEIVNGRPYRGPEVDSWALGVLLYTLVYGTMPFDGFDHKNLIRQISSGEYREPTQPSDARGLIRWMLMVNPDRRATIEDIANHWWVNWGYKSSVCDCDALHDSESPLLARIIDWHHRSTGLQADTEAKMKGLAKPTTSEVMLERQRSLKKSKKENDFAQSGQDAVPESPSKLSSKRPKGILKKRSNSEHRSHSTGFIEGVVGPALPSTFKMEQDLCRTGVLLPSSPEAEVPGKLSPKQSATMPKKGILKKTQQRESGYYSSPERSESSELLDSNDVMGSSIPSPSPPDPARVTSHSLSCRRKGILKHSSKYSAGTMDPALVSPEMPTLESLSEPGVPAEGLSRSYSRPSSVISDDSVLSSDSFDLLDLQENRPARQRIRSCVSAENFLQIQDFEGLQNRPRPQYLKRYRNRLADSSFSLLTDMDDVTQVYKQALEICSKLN
As to the kind of experiment: Selectivity interaction (KinomeScan (DiscoverX)) EUB0000618a NUAK1. The conditions noted are these: at 10 µM.

Assay [8] has as its target Serine/threonine-protein kinase 16 (Homo sapiens, UniProt O75716). Kind of assay: Selectivity interaction (KinomeScan (DiscoverX)) EUB0000618a STK16. The conditions noted are these: at 10 µM.

Serine/threonine-protein kinase 16, sequence (O75716 whole entry): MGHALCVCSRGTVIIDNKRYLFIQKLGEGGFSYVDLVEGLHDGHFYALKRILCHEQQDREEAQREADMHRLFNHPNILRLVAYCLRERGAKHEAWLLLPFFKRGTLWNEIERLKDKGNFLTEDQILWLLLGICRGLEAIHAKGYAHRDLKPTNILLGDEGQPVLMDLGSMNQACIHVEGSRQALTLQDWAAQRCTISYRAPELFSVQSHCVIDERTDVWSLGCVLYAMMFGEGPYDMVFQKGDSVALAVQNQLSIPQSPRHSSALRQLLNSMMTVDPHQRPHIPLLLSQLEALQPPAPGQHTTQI

`Cc1cc([C@@H](C)Nc2ccccc2C(=O)O)c2nc(N3CCOCC3)cc(=O)n2c1` [AZD-6482]: the % of control in assay [1] came out at 100%. In turn, `CN(C)C/C=C/C(=O)Nc1ccc(C(=O)N2CCCC(Nc3ncc(Cl)c(-c4c[nH]c5ccccc45)n3)C2)cc1` (stereo not drawn) returned a % of control in assay [2] of 86%. In assay [3], `Nc1cnc(N2CCc3cc(S(=O)(=O)Nc4c(F)cc(Cl)cc4F)cc(N4CCCC4=O)c32)nc1` [TP-020n] yielded a % of control of 100%. Compound `CCC(=O)N1CCN(c2ccc(-n3c(=O)ccc4cnc5ccc(-c6cnc7ccccc7c6)cc5c43)cc2C(F)(F)F)CC1` showed a % of control in assay [4] of 80%. In assay [5], `CN(C)CC#Cc1ccc2[nH]c3c(c2c1)-c1nc(N)ncc1CCC3` gave a % of control of 11%. On to `CNC(=O)Nc1ccc(-c2nc(N3CC4CCC(C3)O4)c3cnn(C4CCC5(CC4)OCCO5)c3n2)cc1`, for which the % of control in assay [6] amounted to 75%. As for `O[C@H]1CC[C@H](Nc2ncc3nc(Nc4c(F)cc(F)cc4F)n([C@H]4CCOC4)c3n2)CC1`, the % of control was 97% in assay [7] and 60% in assay [8].
